PubChem BioAssay AID1963858 (Molecular Pharmacology Branch, DTP, NCI, 2024)
pIC50: −log10 of the molar value.

Test system: HOP-62 multicell spheroids with HUVEC/MSC, viability
Test: Anticancer human tumor HOP-62 cell line growth inhibition [KRAS2];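 further: viability read after a week of compound exposure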;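 on viability, T/C: 100% = DMSO vehicle-treated spheroids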
Conditions: for pIC50: curve of first compound; for viability, T/C: stronger effect = lower value
Procedure, shortened: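 KRAS-mutant tumor cells were grown as spheroids with HUVEC endothelial cells and human MSCs as stroma. Targeted agents were tested alone and with KRAS pathway inhibitors. Doses started at or near clinical Cmax, or 10 microM, descending half-log.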

[1] = second compound 0.0316 µM, first compound 0.0316 µM
[2] = second compound 0.0316 µM, first compound 0.1 µM
[3] = second compound 0.0316 µM, first compound 0.316 µM
[4] = second compound 0.0316 µM, first compound 1 µM
[5] = second compound 0.0316 µM, first compound 3.16 µM
[6] = second compound 0.0316 µM, first compound 10 µM
[7] = second compound 0.1 µM, first compound 0.0316 µM
[8] = second compound 0.1 µM, first compound 0.1 µM
[9] = second compound 0.1 µM, first compound 0.316 µM
[10] = second compound 0.1 µM, first compound 1 µM
[11] = second compound 0.1 µM, first compound 3.16 µM
[12] = second compound 0.1 µM, first compound 10 µM
[13] = second compound 0.316 µM, first compound 0.0316 µM
[14] = second compound 0.316 µM, first compound 0.1 µM
[15] = second compound 0.316 µM, first compound 0.316 µM
[16] = second compound 0.316 µM, first compound 1 µM
[17] = second compound 0.316 µM, first compound 3.16 µM
[18] = second compound 0.316 µM, first compound 10 µM
[19] = second compound 1 µM, first compound 0.0316 µM
[20] = second compound 1 µM, first compound 0.1 µM
[21] = second compound 1 µM, first compound 0.316 µM
[22] = second compound 1 µM, first compound 1 µM
[23] = second compound 1 µM, first compound 3.16 µM
[24] = second compound 1 µM, first compound 10 µM
[25] = second compound 3.16 µM, first compound 0.0316 µM
[26] = second compound 3.16 µM, first compound 0.1 µM
[27] = second compound 3.16 µM, first compound 0.316 µM
[28] = second compound 3.16 µM, first compound 1 µM
[29] = second compound 3.16 µM, first compound 3.16 µM
[30] = second compound 3.16 µM, first compound 10 µM
[31] = second compound 0.0316 µM, first compound 0.01 µM
[32] = second compound 0.1 µM, first compound 0.01 µM
[33] = second compound 0.316 µM, first compound 0.01 µM
[34] = second compound 1 µM, first compound 0.01 µM
[35] = second compound 3.16 µM, first compound 0.01 µM

Compound	pIC50 (second compound 0.0316 µM)	pIC50 (second compound 0.1 µM)	pIC50 (second compound 0.316 µM)	pIC50 (second compound 1 µM)	pIC50 (second compound 3.16 µM)	viability, T/C [1]	viability, T/C [2]	viability, T/C [3]	viability, T/C [4]	viability, T/C [7]	viability, T/C [8]	viability, T/C [9]	viability, T/C [10]	viability, T/C [13]	viability, T/C [14]	viability, T/C [15]	viability, T/C [16]	viability, T/C [19]	viability, T/C [20]	viability, T/C [21]	also measured
CC(C)NCC(C(=O)N1CCN(c2ncnc3c2C(C)CC3O)CC1)c1ccc(Cl)cc1 (stereo not given) + C=CC(=O)N1CCN(c2nc(OCC3CCCN3C)nc3c2CCN(c2cccc4cccc(C)c24)C3)CC1CC#N	6.76	7.32	> 7.50	> 7.50	> 7.50	76.8%	57.4%	42.4%	18.6%	55.9%	39.7%	16.1%	9.65%	39.4%	29.7%	15.2%	9.41%	29.8%	21%	14.1%	viability, T/C [5]: 8.82%; viability, T/C [6]: 6.71%; viability, T/C [11]: 6.16%; viability, T/C [12]: 5.4%; viability, T/C [17]: 5.86%; viability, T/C [18]: 5.37%; viability, T/C [22]: 7.91%; viability, T/C [23]: 5.78%; viability, T/C [24]: 5%; viability, T/C [25]: 0.51%; viability, T/C [26]: 0.35%; viability, T/C [27]: 0.44%; viability, T/C [28]: 0.32%; viability, T/C [29]: 0.31%; viability, T/C [30]: 0.41%
CC1COCCN1c1cc(-c2ccnn2C)c2ccnc(-c3ccn[nH]3)c2n1 (stereo not given) + C=CC(=O)N1CCN(c2nc(OCC3CCCN3C)nc3c2CCN(c2cccc4cccc(C)c24)C3)CC1CC#N	7.40	7.51	7.91	> 8.00	> 8.00	55.4%	28.6%	17.6%	14%	49.3%	22.7%	12%	11.7%	30.3%	19.4%	10.9%	9.7%	18.6%	9.29%	8.75%	viability, T/C [31]: 94.9%; viability, T/C [5]: 12.8%; viability, T/C [32]: 79.4%; viability, T/C [11]: 10%; viability, T/C [33]: 54%; viability, T/C [17]: 7.82%; viability, T/C [34]: 27.2%; viability, T/C [22]: 8.51%; viability, T/C [23]: 7.02%; viability, T/C [35]: 2.88%; viability, T/C [25]: 1.59%; viability, T/C [26]: 0.93%; viability, T/C [27]: 0.21%; viability, T/C [28]: 0.17%; viability, T/C [29]: 3.92%
CC1OCC2(CCN(c3cnc(Sc4ccnc(N)c4Cl)c(N)n3)CC2)C1N (stereo not given) + C=CC(=O)N1CCN(c2nc(OCC3CCCN3C)nc3c2CCN(c2cccc4cccc(C)c24)C3)CC1CC#N	7.16	7.43	> 7.50	> 7.50	> 7.50	54.3%	49.1%	27%	19.5%	53.5%	29.1%	19.9%	12.8%	40%	30.7%	13.9%	10.5%	24%	16%	11.8%	viability, T/C [5]: 11.9%; viability, T/C [6]: 12.7%; viability, T/C [11]: 11.5%; viability, T/C [12]: 12.2%; viability, T/C [17]: 10.2%; viability, T/C [18]: 10.6%; viability, T/C [22]: 8.98%; viability, T/C [23]: 7.63%; viability, T/C [24]: 7.61%; viability, T/C [25]: 4.76%; viability, T/C [26]: 1.76%; viability, T/C [27]: 1.12%; viability, T/C [28]: 0.88%; viability, T/C [29]: 0.72%; viability, T/C [30]: 0.51%
CCN1CCN(Cc2ccc(Nc3ncc(F)c(-c4cc(F)c5nc(C)n(C(C)C)c5c4)n3)nc2)CC1 + C=CC(=O)N1CCN(c2nc(OCC3CCCN3C)nc3c2CCN(c2cccc4cccc(C)c24)C3)CC1CC#N	6.37	7.24	7.76	> 8.50	> 8.50	64.1%	65%	52.4%	42.9%	54.7%	43.8%	42.9%	31.6%	51.3%	38.4%	34.1%	30.1%	37.3%	37.1%	37.8%	viability, T/C (second compound 0.0316 µM, first compound 0.00316 µM): 91.3%; viability, T/C [31]: 83.8%; viability, T/C (second compound 0.1 µM, first compound 0.00316 µM): 65.6%; viability, T/C [32]: 59.4%; viability, T/C (second compound 0.316 µM, first compound 0.00316 µM): 57.3%; viability, T/C [33]: 51.4%; viability, T/C (second compound 1 µM, first compound 0.00316 µM): 39.4%; viability, T/C [34]: 33.8%; viability, T/C [22]: 23.8%; viability, T/C (second compound 3.16 µM, first compound 0.00316 µM): 0.71%; viability, T/C [35]: 1.27%; viability, T/C [25]: 1.14%; viability, T/C [26]: 0.26%; viability, T/C [27]: 0.17%; viability, T/C [28]: 0.19%
CCNC(=O)CC1N=C(c2ccc(Cl)cc2)c2cc(OC)ccc2-n2c(C)nnc21 (stereo not given) + C=CC(=O)N1CCN(c2nc(OCC3CCCN3C)nc3c2CCN(c2cccc4cccc(C)c24)C3)CC1CC#N	6.77	7.43	6.36	> 7.50	> 7.50	82.8%	62.3%	34.6%	33.2%	51%	43.6%	25.1%	22.7%	95%	95.4%	53.5%	45.1%	33.2%	24.5%	20.2%	viability, T/C [5]: 27.2%; viability, T/C [6]: 29.3%; viability, T/C [11]: 18.2%; viability, T/C [12]: 20.6%; viability, T/C [17]: 41.5%; viability, T/C [18]: 36.8%; viability, T/C [22]: 19.2%; viability, T/C [23]: 16.4%; viability, T/C [24]: 16.1%; viability, T/C [25]: 0.58%; viability, T/C [26]: 0.37%; viability, T/C [27]: 0.12%; viability, T/C [28]: 0.12%; viability, T/C [29]: 0.39%; viability, T/C [30]: 0.19%
Cn1nccc1Nc1nccc(-c2cc3c(s2)C(C)(C)N(CCN2CCOCC2)C3=O)n1 + C=CC(=O)N1CCN(c2nc(OCC3CCCN3C)nc3c2CCN(c2cccc4cccc(C)c24)C3)CC1CC#N	6.58	6.84	> 7.50	> 7.50	> 7.50	84.1%	68%	50.4%	20.3%	58.2%	53%	39.3%	17.1%	45.3%	39.2%	18.1%	18%	27.7%	30.3%	13.1%	viability, T/C [5]: 22.4%; viability, T/C [6]: 22.7%; viability, T/C [11]: 17.2%; viability, T/C [12]: 17%; viability, T/C [17]: 13.6%; viability, T/C [18]: 16%; viability, T/C [22]: 12.3%; viability, T/C [23]: 11.3%; viability, T/C [24]: 12.6%; viability, T/C [25]: 2.34%; viability, T/C [26]: 0.65%; viability, T/C [27]: 1.84%; viability, T/C [28]: 4.87%; viability, T/C [29]: 4.21%; viability, T/C [30]: 0.35%
